# Patent US8822754B2, “Ecdysone receptor-based inducible gene expression system” (Intrexon Corporation, priority 2000, dated 2014)
# Legend:
# GAL4EcR + VP16RXR = experiment: Transactivation of reporter genes through switch 1.1 in 3T3 cells
# Source text: In various cellular backgrounds, including mammalian cells, insect ecdysone receptor (EcR) heterodimerizes with retinoid X receptor (RXR) and, upon binding of ligand, transactivates genes under the control of ecdysone response elements. Applicants constructed several EcR-based gene expression cassettes based on the spruce budworm Choristoneura fumiferana EcR (“CfEcR”; full length polynucleotide and amino acid sequences are set forth in SEQ ID NO: 49 and SEQ ID NO: 50, respectively), C. fumiferana ultraspiracle (“CfUSP”; full length polynucleotide and amino acid sequences are set forth in SEQ ID NO: 51 and SEQ ID NO: 52, respectively), and mouse Mus musculus RXRα (MmRXRα; full length polynucleotide and amino acid sequences are set forth in SEQ ID NO: 53 and SEQ ID NO: 54, respectively). The prepared receptor constructs comprise a ligand binding domain of EcR and of RXR or of USP; a DNA binding domain of GAL4 or of EcR; and an activation domain of VP16. The reporter constructs include a reporter gene, luciferase or LacZ, operably linked to a synthetic promoter construct that comprises either GAL4 or EcR/USP binding sites (response elements). Various combinations of these receptor and reporter constructs were cotransfected into CHO, NIH3T3, CV1 and 293 cells. […] Reporter gene expression activities were assayed at 24 hr or 48 hr after ligand addition.
# The same procedures described for CHO cells were followed for 3T3 cells as well with two modifications. The cells were plated when they reached 50% confluency. 125,000 or 50,000 or 25,000 cells were plated per well of 6- or 12- or 24-well plates respectively. The GAl4EcR/VP16RXR and reporter vector DNAs were transfected into NIH3T3 cells, the transfected cells were grown in medium containing PonA, MurA, N-(2-ethyl-3-methoxybenzoyl)-N′-(3,5-dimethylbenzoyl)-N′-t-butylhydrazine, or N-(3,4-(1,2-ethylenedioxy)-2-methylbenzoyl)-N′-(3,5-dimethylbenzoyl)-N′-tert-butylhydrazine for 48 hr. The ligand treatments were performed as described in the CHO cell section above.
# Cells were harvested 24-48 hr after adding ligands. 125, 250, or 500 μl of passive lysis buffer (part of Dual-luciferase™ reporter assay system from Promega Corporation) were added to each well of 24- or 12- or […] respectively. The plates were placed on a rotary shaker for 15 min. Twenty μl of lysate was assayed. Luciferase activity was measured using Dual-luciferase™ reporter assay system from Promega Corporation following the manufacturer's instructions. β-Galactosidase was measured using Galacto-Star™ assay kit from TROPIX following the manufacturer's instructions. All luciferase and β-galactosidase activities were normalized using Renilla luciferase as a standard. Fold activities were calculated by dividing normalized relative light units (“RLU”) in ligand treated cells with normalized RLU in DMSO treated cells (untreated control).
# CfEcR/RXR-based switch = experiment: Luciferase reporter assay of truncated CfEcR and MmRXR receptor pairs in NIH3T3 cells (Example 2); type: cell-based, Choristoneura fumiferana; settings: NIH3T3 cells, 0, 1, 5 or 25 uM ligand, 48 hr; FIGS. 11-14
# Protocol: Briefly, polynucleotides encoding EcR or RXR receptors were truncated at the junctions of A/B, C, D, E and F domains and fused to either a GAL4 DNA binding domain encoding polynucleotide (SEQ ID NO: 41) for CfEcR, or a VP16 activation domain encoding polynucleotide (SEQ ID NO: 45) for MmRXR as described in Example 1. The resulting receptor truncation/fusion polypeptides were assayed in NIH3T3 cells. Plasmid pFRLUC (Stratagene) encoding a luciferase polypeptide was used as a reporter gene construct and pTKRL (Promega) encoding a Renilla luciferase polypeptide under the control of the constitutive TK promoter was used to normalize the transfections as described above. The analysis was performed in triplicates and mean luciferase counts were determined as described above.
# Gene expression cassettes comprising polynucleotides encoding either full length or truncated CfEcR polypeptides fused to a GALA. […] The cells were harvested, lysed and luciferase reporter activity was measured in the cell lysates. […]
smiles,measurement,setting,value
"CCc1c(OC)cccc1C(=O)NN(C(=O)c1cc(C)cc(C)c1)C(C)(C)C [N-(2-ethyl-3-methoxybenzoyl)-N′-(3,5-dimethylbenzoyl)-N′-tert-butylhydrazine]",Mean Fold Induction at 1.0 μM Concentration,"GAL4EcR + VP16RXR; GAL4CfEcRDEF/VP16MmRXRDEF (switch 1.1), 1.0 μM ligand, 48 hr",116 fold
same,"Mean Fold Activation Through N-(2-ethyl-3-methoxybenzoyl)-N′-(3,5-dimethylbenzoyl)-N′-t-butylhydrazine","GAL4EcR + VP16RXR; switch 1.1 GAL4EcR + VP16RXR, pGAL4RELuc",1118 fold
same,sensitivity of the EcR/RXR switch to the ligand,CfEcR/RXR-based switch,much more sensitive
